Data as given in article PMC10687071 (The Journal of Biological Chemistry, 2023).
Changes are numbered by the printed parent chain.

Legend:
[1] = biological target: T1, Y71F mutant EAG1 channels (Mus musculus, UniProt Q60603, Y71F); assay: TEVC recording, imipramine inhibition, Y71F mutant; format: cell-based; conditions: Y71F mutant EAG1 channel, +50 mV
T1 construct: expressed in transfected cells; host or cells: Xenopus laevis oocytes injected with cRNA
T1 sequence (Q60603 1-989 Y71F): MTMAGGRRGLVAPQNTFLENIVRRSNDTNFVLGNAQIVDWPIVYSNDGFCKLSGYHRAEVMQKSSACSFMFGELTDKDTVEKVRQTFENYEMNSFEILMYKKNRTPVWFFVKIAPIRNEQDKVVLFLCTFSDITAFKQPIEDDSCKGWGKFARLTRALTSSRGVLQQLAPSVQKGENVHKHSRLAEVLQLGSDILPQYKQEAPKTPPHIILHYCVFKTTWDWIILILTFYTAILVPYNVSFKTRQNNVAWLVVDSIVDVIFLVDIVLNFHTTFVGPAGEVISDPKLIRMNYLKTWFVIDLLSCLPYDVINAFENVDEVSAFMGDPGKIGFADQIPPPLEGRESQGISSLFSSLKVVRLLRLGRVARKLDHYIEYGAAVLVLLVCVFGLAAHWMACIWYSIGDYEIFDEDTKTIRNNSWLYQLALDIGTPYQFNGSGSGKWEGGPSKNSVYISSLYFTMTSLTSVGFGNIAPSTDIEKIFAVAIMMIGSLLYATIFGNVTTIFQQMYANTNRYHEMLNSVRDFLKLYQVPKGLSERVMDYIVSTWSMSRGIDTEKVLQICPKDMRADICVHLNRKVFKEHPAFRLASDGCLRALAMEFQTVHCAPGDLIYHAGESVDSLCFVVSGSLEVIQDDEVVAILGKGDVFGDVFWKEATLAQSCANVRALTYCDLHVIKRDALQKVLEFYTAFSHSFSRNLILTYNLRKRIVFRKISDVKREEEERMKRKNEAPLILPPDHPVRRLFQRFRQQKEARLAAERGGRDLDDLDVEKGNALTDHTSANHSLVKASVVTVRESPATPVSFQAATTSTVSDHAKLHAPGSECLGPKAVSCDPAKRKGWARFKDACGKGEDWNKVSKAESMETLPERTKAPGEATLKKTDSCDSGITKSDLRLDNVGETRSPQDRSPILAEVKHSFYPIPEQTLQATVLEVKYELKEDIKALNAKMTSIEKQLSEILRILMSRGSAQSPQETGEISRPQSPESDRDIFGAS
Description: (§1) The cDNA encoding wild-type (WT) mouse EAG1 channels in pGH19 vector was kindly provided by G. Robertson (University of Wisconsin-Madison, Madison, WI). The mutant ΔPAS EAG1 channel in pGH19 with the deletion of the PAS domain residues 2 to 130 was generated by Bio Basic Inc and verified by DNA sequencing (Genewiz). Mutant EAG1 channels with single amino acid substitutions were generated by Genewiz and verified by DNA sequencing. cRNA was transcribed using the T7 mMessage mMachine kit (Thermo Fisher Scientific). Defolliculated Xenopus laevis oocytes were purchased from Ecocyte Bioscience or Xenopus1 and injected with the cRNA using a Nanoinject II oocyte injector (Drummond).
(§2) For EAG1 current recordings, oocytes were placed into a handmade chamber containing a bath solution for the current recording. The currents were recorded using a TEVC technique with OC-725C amplifier (Warner Instruments) and pClamp11 software (Molecular Devices). The signals were digitized using Digidata 1550 (Molecular Devices). Patch pipettes were pulled from borosilicate glass and had resistances of 0.7 to 1.5 MΩ. The recording (bath) solution contained 96 mM NaCl, 4 mM KCl, 0.1 mM CaCl2, 1.8 mM MgCl2, and 5 mM HEPES, pH 7.5. The pipette solution contained 3 M KCl. […]

[2] = biological target: T2, F87G mutant EAG1 channels (Mus musculus, UniProt Q60603, F87G); assay: TEVC recording, imipramine inhibition, F87G mutant; format: cell-based; conditions: F87G mutant EAG1 channel, +50 mV
T2 construct: expressed in transfected cells; host or cells: Xenopus laevis oocytes injected with cRNA
T2 sequence (Q60603 1-989 F87G): T1 sequence (Q60603 1-989 Y71F) with F71Y, F87G
Description: as §1, §2

IC50 [1]: 58 ± 3.7 µM | IC50 [2]: 42.8 ± 0.6 µM
Structure (SMILES): CN(C)CCCN1c2ccccc2CCc2ccccc21 [imipramine]
